Laboratory results reported in patent publication US10220039B2, “Method of treating polycystic kidney diseases with ceramide derivatives” (Genzyme Corporation, priority 2007, dated 2019).

Test system: jck mice
Assay: jck mouse model of polycystic kidney disease, 0.225% Compound A in feed, 26-64 days of age
Assay type: in vivo
Conditions: for K/BW ratio (%) / Body weight / BUN / Cystic volume (% BW): treated, 26-64 days of age; for K/BW ratio (%) / Body weight: 0.225% in feed ad libitum; for Body weight: at sacrifice; for BUN / Cystic volume (% BW): 0.225% in feed; for Cystic volume (% BW): percentage cystic area multiplied by kidney/body weight ratio
Description: jck mice was administered Compound A ad libitum in feed (0.225% Compound A mixed with a standard diet chow in powdered format) from 26-64 days of age. Control jck mice were fed a control powdered diet from 26-64 days of age. At 63 days of age, animals were transferred to metabolic cages for 24 hour urine collection. At 64 days of age, animals were sacrificed by CO2 administration. Blood was collected by heart puncture for serum isolation. Kidneys were isolated and bisected; half of each kidney was fixed in 4% paraformaldehyde in PBS overnight for paraffin embedding and H&E staining.
Total body weight and kidney weight were determined at sacrifice.
Cyst volume was measured by quantitating the percentage of cystic area in histological sections of kidneys from the treated and control animals, multiplied by the kidney/body weight ratio.
Blood urea nitrogen (BUN) levels were determined in serum samples derived from animals at sacrifice.

[1] = treated vs control jck mice, p-value<0.05, two-tailed t-test

CCCCCCCCC(=O)N[C@H](CN1CCCC1)[C@H](O)c1ccc2c(c1)OCCO2 [Compound A, N-((1R,2R)-1-(2,3-dihydrobenzo[1,4|]dioxin-6-yl)-1-hydroxy-3-(pyrrolidin-1-yl)propan-2-yl)nonanamide]
K/BW ratio (%) (female jck mice): 3.57 ± 0.58 % | Body weight (female jck mice): 15.93 ± 1.65 g | BUN (female jck mice, serum at sacrifice): 34.67 ± 9.41 mg/dL | Cystic volume (% BW) (female jck mice): 0.58 ± 0.29 % BW | cystic disease, as measured by kidney/body weight ratio and cyst volume (in feed at 0.225%, both males and females): statistically significant reduction | PKD in a mouse model (jck mice): Effectively Inhibited PKD | K/BW ratio (%) (male jck mice): 4.46 ± 0.46 % | Body weight (male jck mice): 18.43 ± 1.82 g | BUN (male jck mice, serum at sacrifice): 39.25 ± 10.70 mg/dL | Cystic volume (% BW) (male jck mice): 0.88 ± 0.23 % BW | renal function (treated animals relative to controls, in feed at 0.225%, both males and females): improved renal function | cyst volume [1]: significant decrease | kidney weight/body weight ratio [1]: significant difference | total body weight [1]: statistically significant decrease | BUN levels (treated vs untreated control jck mice, serum at sacrifice, p-value<0.05, two-tailed t-test): significant reduction
